Measurements from patent US20130096100A1, “DI(ARYLAMINO)ARYL COMPOUND” (ASTELLAS PHARMA INC., priority 2007, published 2013).

Columns and labels:
[1] = Toxicity test in rats, 7-day repeated oral administration (Test Example 5); type: in vivo, SD rats; details: 7 days; for Non-toxic dose: oral; for Dose: Bone marrow inhibition / Dose: Exacerbation of common symptoms / Dose: Moribund condition: SD, rat, in vivo, po
Description: Test compounds were each suspended in a 0.5% aqueous methylcellulose solution and repeatedly administered to SD rats (two females and four males in each group) by the oral route at each dose for 7 days.

[2] = tested on: 88 types of kinases; experiment: Kinase inhibition profiling, 88 types of kinases (Test Example 6); type: biochemical; details: concentration of 100 nM
[3] = biological target: T1, MER (Homo sapiens, UniProt Q12866); experiment: Kinase inhibition profiling, MER (Test Example 6); type: biochemical; details: 100 nM; read-out: inhibitory activity against MER
T1 construct: purchased Carna Biosciences Inc., Japan (contract measurement)
T1 sequence (Q12866 21-999): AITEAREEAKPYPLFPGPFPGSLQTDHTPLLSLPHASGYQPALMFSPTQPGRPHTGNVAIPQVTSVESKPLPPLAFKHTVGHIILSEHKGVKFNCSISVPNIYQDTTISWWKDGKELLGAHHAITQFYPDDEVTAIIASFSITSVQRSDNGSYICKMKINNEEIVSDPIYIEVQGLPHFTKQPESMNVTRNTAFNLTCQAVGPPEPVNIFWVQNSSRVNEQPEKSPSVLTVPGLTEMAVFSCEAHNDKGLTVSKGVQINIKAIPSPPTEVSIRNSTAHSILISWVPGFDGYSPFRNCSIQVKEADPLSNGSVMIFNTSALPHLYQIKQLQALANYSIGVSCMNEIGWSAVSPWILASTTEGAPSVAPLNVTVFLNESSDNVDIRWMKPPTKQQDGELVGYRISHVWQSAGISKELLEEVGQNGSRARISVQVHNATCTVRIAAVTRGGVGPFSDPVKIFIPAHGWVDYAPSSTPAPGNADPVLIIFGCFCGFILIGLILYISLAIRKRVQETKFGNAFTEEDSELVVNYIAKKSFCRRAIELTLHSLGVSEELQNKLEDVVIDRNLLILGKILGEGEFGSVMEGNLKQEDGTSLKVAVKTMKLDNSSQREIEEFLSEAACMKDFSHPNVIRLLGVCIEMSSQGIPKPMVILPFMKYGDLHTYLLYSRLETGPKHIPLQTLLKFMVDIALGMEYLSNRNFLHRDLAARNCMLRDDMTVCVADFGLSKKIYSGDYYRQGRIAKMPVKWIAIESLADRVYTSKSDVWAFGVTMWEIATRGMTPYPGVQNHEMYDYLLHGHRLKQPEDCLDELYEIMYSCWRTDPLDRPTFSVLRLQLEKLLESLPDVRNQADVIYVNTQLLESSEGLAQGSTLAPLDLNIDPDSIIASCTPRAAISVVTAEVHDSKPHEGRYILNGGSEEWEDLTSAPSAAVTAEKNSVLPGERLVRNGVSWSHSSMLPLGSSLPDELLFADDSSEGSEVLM

[4] = biological target: T2, PHKG1 (Homo sapiens, UniProt Q16816); experiment: Kinase inhibition profiling, PHKG1 (Test Example 6); type: biochemical; details: 100 nM; read-out: inhibitory activity against PHKG1
T2 construct: purchased Carna Biosciences Inc., Japan (contract measurement)
T2 sequence (Q16816 whole entry): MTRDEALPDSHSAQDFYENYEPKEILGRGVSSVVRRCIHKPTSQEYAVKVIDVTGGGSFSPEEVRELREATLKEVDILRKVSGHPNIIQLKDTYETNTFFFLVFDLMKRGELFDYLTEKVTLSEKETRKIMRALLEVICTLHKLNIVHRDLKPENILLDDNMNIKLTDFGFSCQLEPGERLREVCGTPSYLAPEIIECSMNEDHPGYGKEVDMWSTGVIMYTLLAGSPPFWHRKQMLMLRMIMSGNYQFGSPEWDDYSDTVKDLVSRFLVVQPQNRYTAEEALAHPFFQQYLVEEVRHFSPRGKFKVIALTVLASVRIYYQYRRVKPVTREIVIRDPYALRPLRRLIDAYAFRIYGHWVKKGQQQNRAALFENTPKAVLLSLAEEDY

[5] = biological target: T3, MNK1 (Homo sapiens, UniProt Q9BUB5); experiment: Kinase inhibition profiling, MNK1 (Test Example 6); type: biochemical; details: 100 nM; read-out: inhibitory activity against MNK1
T3 construct: purchased Carna Biosciences Inc., Japan (contract measurement)
T3 sequence (Q9BUB5 whole entry): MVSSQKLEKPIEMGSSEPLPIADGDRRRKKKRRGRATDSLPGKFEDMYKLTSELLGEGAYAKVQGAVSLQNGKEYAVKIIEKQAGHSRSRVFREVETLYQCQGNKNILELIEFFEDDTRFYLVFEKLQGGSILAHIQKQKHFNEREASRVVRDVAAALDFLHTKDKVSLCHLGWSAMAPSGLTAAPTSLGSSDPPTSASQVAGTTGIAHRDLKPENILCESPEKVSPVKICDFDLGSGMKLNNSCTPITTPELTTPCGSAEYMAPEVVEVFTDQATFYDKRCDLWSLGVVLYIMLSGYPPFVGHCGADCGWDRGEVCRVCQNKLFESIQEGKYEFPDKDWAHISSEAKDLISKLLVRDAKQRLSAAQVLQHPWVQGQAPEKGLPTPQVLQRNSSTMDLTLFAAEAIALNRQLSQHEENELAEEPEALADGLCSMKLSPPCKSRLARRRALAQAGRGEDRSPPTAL

[6] = biological target: T4, MNK2 (Homo sapiens, UniProt Q9HBH9); experiment: Kinase inhibition profiling, MNK2 (Test Example 6); type: biochemical; details: 100 nM; read-out: inhibitory activity against MNK2
T4 construct: purchased Carna Biosciences Inc., Japan (contract measurement)
T4 sequence (Q9HBH9 whole entry): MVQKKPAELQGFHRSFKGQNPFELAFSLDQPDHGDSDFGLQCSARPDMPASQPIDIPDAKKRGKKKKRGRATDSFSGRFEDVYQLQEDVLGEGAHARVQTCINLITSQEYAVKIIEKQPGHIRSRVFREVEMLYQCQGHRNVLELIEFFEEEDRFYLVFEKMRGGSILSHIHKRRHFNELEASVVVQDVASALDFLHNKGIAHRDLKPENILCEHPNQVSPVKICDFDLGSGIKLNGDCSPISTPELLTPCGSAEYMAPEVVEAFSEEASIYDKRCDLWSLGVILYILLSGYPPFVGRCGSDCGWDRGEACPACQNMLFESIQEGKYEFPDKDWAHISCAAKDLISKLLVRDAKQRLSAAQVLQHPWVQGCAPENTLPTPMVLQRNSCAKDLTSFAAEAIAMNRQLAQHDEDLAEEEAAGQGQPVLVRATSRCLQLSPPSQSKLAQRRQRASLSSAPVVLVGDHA

For COc1cc(N2CCC(N3CCN(C)CC3)CC2)ccc1Nc1ncnc(Nc2ccccc2S(=O)(=O)C(C)C)n1 [Example 23], the Non-toxic dose ([1]; female SD rats (2 rats)) was 10 mg/kg, the “Dose: Bone marrow inhibition” value ([1]; female) was 100 mg/kg and the “Dose: Exacerbation of common symptoms” value ([1]; female) was “(>300) mg/kg”. The “Dose: Moribund condition” value ([1]; female) was “(>300) mg/kg”, the Non-toxic dose ([1]; male SD rats (4 rats)) was 10 mg/kg and the “Dose: Bone marrow inhibition” value ([1]; male) was 100 mg/kg. The “Dose: Exacerbation of common symptoms” value ([1]; male) was “(>300) mg/kg”, the “Dose: Moribund condition” value ([1]; male) was “(>300) mg/kg” and the “number of types of kinases (of 88) with 50% or more inhibitory activity” value [2] was 4 types of kinases. The inhibition at 0.1 µM [3] was under 20%, the inhibition at 0.1 µM [4] was under 20% and the inhibition at 0.1 µM [5] was 60%. For the same molecule, the inhibition at 0.1 µM [6] was 80%.
